Results reported in PubChem BioAssay AID330 (DTP/NCI, 2004).
“And” between values parts separate entries of the source, which are not always exact repeats. Equal entries are not always repeated. Toxic doses and inconclusive results are not listed. The calls were made as follows: active = survival T/C of 150% or more; inactive = T/C below 125% in these data.

Test system: P388 leukemia ip, CD2F1 mice, survival T/C
Experiment: NCI In Vivo Anticancer Drug Screen. Data for tumor model P388 Leukemia (intraperitoneal) in CD2F1 (CDF1) mice
Conditions: endpoint: median survival time, higher = longer survival
In short: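 Mice carrying the transplanted tumor received test compound or vehicle. Survival was recorded in each group, and the value is the treated-group measurement divided by that of the vehicle-treated control group.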

[1] = dose: 12.5 mg/kg/injection, schedule: Q01DX005 (ip), vehicle: Klucel (hydroxypropylcellulose) (HPC)
[2] = dose: 25.0 mg/kg/injection, schedule: Q01DX005 (ip), vehicle: Klucel (hydroxypropylcellulose) (HPC)
[3] = dose: 50.0 mg/kg/injection, schedule: Q01DX005 (ip), vehicle: Klucel (hydroxypropylcellulose) (HPC)
[4] = dose: 60.0 mg/kg/injection, schedule: Q01DX005 (ip), vehicle: saline with Tween-80
[5] = dose: 120.0 mg/kg/injection, schedule: Q01DX005 (ip), vehicle: saline with Tween-80
[6] = dose: 240.0 mg/kg/injection, schedule: Q01DX005 (ip), vehicle: saline with Tween-80
[7] = dose: 50.0 mg/kg/injection, schedule: Q01DX009 (ip), vehicle: Klucel (hydroxypropylcellulose) (HPC)
[8] = dose: 100.0 mg/kg/injection, schedule: Q01DX009 (ip), vehicle: Klucel (hydroxypropylcellulose) (HPC)
[9] = dose: 200.0 mg/kg/injection, schedule: Q01DX009 (ip), vehicle: Klucel (hydroxypropylcellulose) (HPC)
[10] = dose: 50.0 mg/kg/injection, schedule: Q01DX005 (ip), vehicle: saline with Tween-80
[11] = dose: 100.0 mg/kg/injection, schedule: Q01DX005 (ip), vehicle: saline with Tween-80
[12] = dose: 50.0 mg/kg/injection, schedule: Q01DX009 (ip), vehicle: saline with Tween-80
[13] = dose: 100.0 mg/kg/injection, schedule: Q01DX009 (ip), vehicle: saline with Tween-80
[14] = dose: 200.0 mg/kg/injection, schedule: Q01DX009 (ip), vehicle: saline with Tween-80
[15] = dose: 25.0 mg/kg/injection, schedule: Q01DX009 (ip), vehicle: saline with Tween-80
[16] = dose: 100.0 mg/kg/injection, schedule: Q01DX009 (ip), vehicle: saline
[17] = dose: 200.0 mg/kg/injection, schedule: Q01DX009 (ip), vehicle: saline
[18] = dose: 200.0 mg/kg/injection, schedule: Q01DX005 (ip), vehicle: saline with Tween-80
[19] = dose: 12.5 mg/kg/injection, schedule: Q01DX005 (ip), vehicle: saline
[20] = dose: 25.0 mg/kg/injection, schedule: Q01DX005 (ip), vehicle: saline

Measured: T/C

CC(C)NC(=O)OCc1ncn(-c2ccccc2)c1COC(=O)NC(C)C
inactive: [1] 103 % of control | [2] 103 % of control | [3] 87 % of control and 97 % of control | dose: 100.0 mg/kg/injection, schedule: Q01DX005 (ip), vehicle: Klucel (hydroxypropylcellulose) (HPC) 87 % of control and 91 % of control

O=C1OC(C2OC(=O)C(=O)C2C(=O)c2cccc([N+](=O)[O-])c2)C(C(=O)c2cccc([N+](=O)[O-])c2)C1=O (centres undefined)
inactive: [4] 100 % of control | [5] 105 % of control | [6] 100 % of control

Cc1cc(CC(C)O)n[nH]1 (centres undefined)
inactive: [7] 109 % of control | [8] 106 % of control | [9] 102 % of control

CN(C)c1ccc(/C=C/C(=O)c2ccc(Nc3ccnc4cc(Cl)ccc34)cc2)cc1
inactive: dose: 400.0 mg/kg/injection, schedule: Q04DX002 (ip), vehicle: saline with Tween-80 93 % of control

CC1C(C(=O)NCC(c2ccccc2)c2ccccc2)CC2CCCCN21 (centres undefined)
inactive: dose: 15.0 mg/kg/injection, schedule: Q01DX005 (ip), vehicle: saline with Tween-80 96 % of control | dose: 30.0 mg/kg/injection, schedule: Q01DX005 (ip), vehicle: saline with Tween-80 92 % of control | [4] 91 % of control and 92 % of control

CCN(CC)CCN1CC(=O)N2Cc3ccccc3CN2C(=O)C1
inactive: [10] 101 % of control | [11] 104 % of control

CC(=O)Nc1ccc2c(c1)/C(=C/c1ccc(N(C)C)cc1)c1ccccc1-2
inactive: dose: 25.0 mg/kg/injection, schedule: Q01DX009 (ip), vehicle: Klucel (hydroxypropylcellulose) (HPC) 91 % of control | [7] 96 % of control | [8] 96 % of control | [9] 100 % of control

CC(C)(C)C(Br)C(=O)NN=C(c1ccccc1)c1ccccc1 (centres undefined)
inactive: [12] 106 % of control | [13] 105 % of control | [14] 99 % of control

CC(C)=CCN1C(=O)c2ccccc2C1=O
inactive: [15] 109 % of control | [12] 109 % of control | [13] 104 % of control | [16] 94 % of control | dose: 100.0 mg/kg/injection, schedule: Q01DX009 (ip), vehicle: suspension in saline 98 % of control and 91 % of control | [17] 102 % of control | dose: 200.0 mg/kg/injection, schedule: Q01DX009 (ip), vehicle: suspension in saline 100 % of control and 103 % of control | dose: 400.0 mg/kg/injection, schedule: Q01DX009 (ip), vehicle: saline 120 % of control | dose: 400.0 mg/kg/injection, schedule: Q01DX009 (ip), vehicle: suspension in saline 110 % of control and 91 % of control

CC(=O)NC(Cc1c[nH]c2ccccc12)C(C)=O (centres undefined)
inactive: [15] 89 % of control | [12] 91 % of control | [13] 106 % of control | [14] 97 % of control

C[CH2][Ge]([CH2]C)[CH2]C.C[CH2][Ge]([CH2]C)[O]C
inactive: dose: 50.0 mg/kg/injection, schedule: Q01DX009 (ip), vehicle: saline 106 % of control | [16] 92 % of control | [17] 92 % of control

CC(=O)OCC1OC(OC(C)=O)C(NC(=O)CN(Cc2ccccc2)S(C)(=O)=O)C(OC(C)=O)C1OC(C)=O (centres undefined)
inactive: dose: 12.5 mg/kg/injection, schedule: Q01DX009 (ip), vehicle: other 91 % of control | dose: 25.0 mg/kg/injection, schedule: Q01DX009 (ip), vehicle: other 99 % of control | dose: 50.0 mg/kg/injection, schedule: Q01DX009 (ip), vehicle: other 96 % of control | dose: 100.0 mg/kg/injection, schedule: Q01DX009 (ip), vehicle: other 93 % of control | dose: 200.0 mg/kg/injection, schedule: Q01DX009 (ip), vehicle: other 105 % of control

COc1cc2nc3cc([N+](=O)[O-])ccc3c(Cl)c2cc1OC
inactive: [10] 99 % of control | [11] 101 % of control | [18] 89 % of control

Clc1nc(Cl)nc(Nc2ccc(-c3cc4ccc(-c5ncc[nH]5)cc4[nH]3)cc2)n1
inactive: dose: 60.0 mg/kg/injection, schedule: Q01DX005 (ip), vehicle: Klucel (hydroxypropylcellulose) (HPC) 100 % of control | dose: 120.0 mg/kg/injection, schedule: Q01DX005 (ip), vehicle: Klucel (hydroxypropylcellulose) (HPC) 100 % of control | dose: 240.0 mg/kg/injection, schedule: Q01DX005 (ip), vehicle: Klucel (hydroxypropylcellulose) (HPC) 105 % of control

ClC(Cl)(Cl)C1[O][Sb]([c]2ccccc2)([c]2ccccc2)([c]2ccccc2)[O]1 (centres undefined)
inactive: [7] 90 % of control | [8] 101 % of control

c1cc2nc(-c3ccc4cc(C5=NCCN5)[nH]c4c3)[nH]c2cc1C1=NCCN1
inactive: [19] 106 % of control | [20] 106 % of control | dose: 50.0 mg/kg/injection, schedule: Q01DX005 (ip), vehicle: saline 99 % of control

CC(C)c1ccccc1N1C(=O)CC(Sc2ccccc2N)C1=O (centres undefined)
inactive: [1] 107 % of control | [2] 102 % of control | [3] 105 % of control and 90 % of control | dose: 200.0 mg/kg/injection, schedule: Q01DX005 (ip), vehicle: Klucel (hydroxypropylcellulose) (HPC) 90 % of control

CCCCN(CCCC)C(=N)c1c2ccccc2nc2ccccc12
inactive: dose: 6.25 mg/kg/injection, schedule: Q01DX005 (ip), vehicle: saline 90 % of control | [19] 97 % of control | [20] 103 % of control

[Se]c1nc(N2CCOCC2)ncc1-c1ccccc1
inactive: dose: 6.25 mg/kg/injection, schedule: Q01DX009 (ip), vehicle: saline with Tween-80 100 % of control | dose: 12.5 mg/kg/injection, schedule: Q01DX009 (ip), vehicle: saline with Tween-80 95 % of control | [15] 95 % of control | [14] 92 % of control

NC(N)=NS(=O)(=O)c1ccc(N=Cc2c3ccccc3nc3cc(Cl)ccc23)cc1
inactive: [4] 91 % of control | [5] 91 % of control | [6] 91 % of control

Cn1c(-c2ccccc2Cl)cc(C=O)c1-c1ccccc1
inactive: dose: 100.0 mg/kg/injection, schedule: Q01DX001 (ip), vehicle: saline with Tween-80 99 % of control | dose: 200.0 mg/kg/injection, schedule: Q01DX001 (ip), vehicle: saline with Tween-80 93 % of control | dose: 400.0 mg/kg/injection, schedule: Q01DX001 (ip), vehicle: saline with Tween-80 93 % of control

[Br][Pt+2][Br].[NH-]C(c1ccccc1)C([NH-])c1ccccc1 (centres undefined)
inactive: dose: 12.5 mg/kg/injection, schedule: Q04DX002 (ip), vehicle: saline with Tween-80 112 % of control

O=C(c1ccccc1)C1C(c2ccccc2)SC(c2ccccc2)CC1(O)Cl (centres undefined)
inactive: dose: 100.0 mg/kg/injection, schedule: Q04DX002 (ip), vehicle: Klucel (hydroxypropylcellulose) (HPC) 87 % of control | dose: 200.0 mg/kg/injection, schedule: Q04DX002 (ip), vehicle: Klucel (hydroxypropylcellulose) (HPC) 87 % of control | dose: 400.0 mg/kg/injection, schedule: Q04DX002 (ip), vehicle: Klucel (hydroxypropylcellulose) (HPC) 87 % of control

CCC(C)C(NC(=O)OC(C)(C)c1ccc(-c2ccccc2)cc1)C(=O)O (centres undefined)
inactive: [10] 99 % of control | [11] 102 % of control | [18] 95 % of control

COC(=O)c1cc(-c2ccccc2Cl)n2c(N)nnc2n1
inactive: [4] 118 % of control | [5] 105 % of control | [6] 101 % of control

Cc1cc2nc(C/C(=N/O)c3ccncc3)c(C/C(=N/O)c3ccncc3)nc2cc1C
inactive: [4] 93 % of control | [5] 91 % of control
